Experimental data reported in patent US20150183827A1, “CELL PENETRATING PEPTIDES & METHODS OF IDENTIFYING CELL PENETRATING PEPTIDES” (Hoffmann-La Roche Inc., priority 2012, published 2015).
* marks the point of attachment. FITC = O=C1OC2(c3ccc(O)cc3Oc3cc(O)ccc32)c2ccc(NC(=S)*)cc21; Ahx = NCCCCCC(=O)O

system: H460 cells; experiment: cell penetration of FITC-tagged peptides in H460 cells (confocal fluorescence imaging); type: cell-based; settings: 3 μm, 2 hours, FIGS. 3A-3B
Method: The peptides of Examples 1-19 were tested for cell penetration in H460 and HeLa cell lines as follows.
The H460 cell line and HeLa (ATCC) were maintained in growth media then passaged every 2-3 days. Growth media for H460 was RPMI 1640, 10% fetal calf serum, sodium pyruvate, antibiotics and glutamine (GIBCO). Growth media for HeLa cells was DMEM supplemented with 10% heat-inactivated fetal calf serum, antibiotics and glutamine (GIBCO).
Cells were plated onto Whatman glass-bottom 96-well plates or Perkin Elmer glass-bottom 96-well plates and cultured overnight. Peptide stocks were prepared in DMSO and were diluted in cell growth media for cellular uptake studies. After 2 and 24 h of peptide incubation at various concentrations, media was removed followed by three washes of acidic saline. Formaldehyde fixation, with or without Hoechst 33342 dye solution (to stain nuclei), was followed by PBS washes. Plates were imaged on the Operetta High Content Imaging system in confocal fluorescence mode using the 40×water immersion high NA objective.

| Substance | cell penetration as determined by the fluorescence |
| --- | --- |
| FITC-6Ahx-KVFSPKKKMEFFLLF-NH2 ({FITC-Ahx}-KVFSPKKKMEFFLLF-NH2; SMILES CSCC[C@H](NC(=O)[C@H](CCCCN)NC(=O)[C@H](CCCCN)NC(=O)[C@H](CCCCN)NC(=O)[C@@H]1CCCN1C(=O)[C@H](CO)NC(=O)[C@H](Cc1ccccc1)NC(=O)[C@@H](NC(=O)[C@H](CCCCN)NC(=O)CCCCCNC(=S)Nc1ccc2c(c1)C(=O)OC21c2ccc(O)cc2Oc2cc(O)ccc21)C(C)C)C(=O)N[C@@H](CCC(=O)O)C(=O)N[C@@H](Cc1ccccc1)C(=O)N[C@@H](Cc1ccccc1)C(=O)N[C@@H](CC(C)C)C(=O)N[C@@H](CC(C)C)C(=O)N[C@@H](Cc1ccccc1)C(N)=O) [Example 12] | low but still cell penetrating |
| FITC-6Ahx-LLPQWPRIRHIKLLR-NH2 ({FITC-Ahx}-LLPQWPRIRHIKLLR-NH2; SMILES CC[C@H](C)[C@H](NC(=O)[C@H](Cc1c[nH]cn1)NC(=O)[C@H](CCCNC(=N)N)NC(=O)[C@@H](NC(=O)[C@H](CCCNC(=N)N)NC(=O)[C@@H]1CCCN1C(=O)[C@H](Cc1c[nH]c2ccccc12)NC(=O)[C@H](CCC(N)=O)NC(=O)[C@@H]1CCCN1C(=O)[C@H](CC(C)C)NC(=O)[C@H](CC(C)C)NC(=O)CCCCCNC(=S)Nc1ccc2c(c1)C(=O)OC21c2ccc(O)cc2Oc2cc(O)ccc21)[C@@H](C)CC)C(=O)N[C@@H](CCCCN)C(=O)N[C@@H](CC(C)C)C(=O)N[C@@H](CC(C)C)C(=O)N[C@@H](CCCNC(=N)N)C(N)=O) [Example 19] | low but still cell penetrating |
| FITC-6Ahx-MRMIRFRKKIPYLRY-NH2 ({FITC-Ahx}-MRMIRFRKKIPYLRY-NH2; SMILES CC[C@H](C)[C@H](NC(=O)[C@H](CCSC)NC(=O)[C@H](CCCNC(=N)N)NC(=O)[C@H](CCSC)NC(=O)CCCCCNC(=S)Nc1ccc2c(c1)C(=O)OC21c2ccc(O)cc2Oc2cc(O)ccc21)C(=O)N[C@@H](CCCNC(=N)N)C(=O)N[C@@H](Cc1ccccc1)C(=O)N[C@@H](CCCNC(=N)N)C(=O)N[C@@H](CCCCN)C(=O)N[C@@H](CCCCN)C(=O)N[C@H](C(=O)N1CCC[C@H]1C(=O)N[C@@H](Cc1ccc(O)cc1)C(=O)N[C@@H](CC(C)C)C(=O)N[C@@H](CCCNC(=N)N)C(=O)N[C@@H](Cc1ccc(O)cc1)C(N)=O)[C@@H](C)CC) [Example 14] | low but still cell penetrating |
| FITC-6Ahx-VKIWFQNRRVRWRKR-NH2 ({FITC-Ahx}-VKIWFQNRRVRWRKR-NH2; SMILES CC[C@H](C)[C@H](NC(=O)[C@H](CCCCN)NC(=O)[C@@H](NC(=O)CCCCCNC(=S)Nc1ccc2c(c1)C(=O)OC21c2ccc(O)cc2Oc2cc(O)ccc21)C(C)C)C(=O)N[C@@H](Cc1c[nH]c2ccccc12)C(=O)N[C@@H](Cc1ccccc1)C(=O)N[C@@H](CCC(N)=O)C(=O)N[C@@H](CC(N)=O)C(=O)N[C@@H](CCCNC(=N)N)C(=O)N[C@@H](CCCNC(=N)N)C(=O)N[C@H](C(=O)N[C@@H](CCCNC(=N)N)C(=O)N[C@@H](Cc1c[nH]c2ccccc12)C(=O)N[C@@H](CCCNC(=N)N)C(=O)N[C@@H](CCCCN)C(=O)N[C@@H](CCCNC(=N)N)C(N)=O)C(C)C) [Example 13] | medium |
